The values below come from ChEMBL document CHEMBL4680112, “Synthesis and Structure-Activity Relationships of Inhibitors That Target the C-Terminal MEEVD on Heat Shock Protein 90” (ACS Med Chem Lett, 2018).

A word on the IC50: it is the concentration at which inhibition is half-maximal. High values mean lower potency, low ones higher potency.

For experiment [1], the target named is T1, Heat shock protein HSP 90-beta (Homo sapiens, UniProt P08238). Nature of the experiment: Inhibition of C-terminal HSP90beta (527 to 724 residues) (unknown origin) interaction with CYP40 at 1 to 25 uM measured after 30 mins by AlphaLISA assay. Conditions: dose 1-25 µM.
The target in experiment [2] is T1, Heat shock protein HSP 90-beta. The experiment can be described thus: Potency index, ratio of Kawakami-peptide IC50 to LB51 IC50 C-terminal HSP90beta (527 to 724 residues) (unknown origin) interaction with CYP40 measured after 30 mins by Alphascreen assay.
The target is the same in experiment [3]. Nature of the experiment: Inhibition of C-terminal HSP90beta (527 to 724 residues) (unknown origin) interaction with CYP40 measured after 30 mins by Alphascreen assay. For orientation: Alpha assays give light when donor and acceptor beads are brought close together.

Activity calls are given as the source filed them. No cut-off for these calls is given here. Non-standard residues stand in square brackets, D forms with d. Residues, ends and D or L forms follow the SMILES beside them.

T1 sequence (P08238 whole entry, the tested form may be a part): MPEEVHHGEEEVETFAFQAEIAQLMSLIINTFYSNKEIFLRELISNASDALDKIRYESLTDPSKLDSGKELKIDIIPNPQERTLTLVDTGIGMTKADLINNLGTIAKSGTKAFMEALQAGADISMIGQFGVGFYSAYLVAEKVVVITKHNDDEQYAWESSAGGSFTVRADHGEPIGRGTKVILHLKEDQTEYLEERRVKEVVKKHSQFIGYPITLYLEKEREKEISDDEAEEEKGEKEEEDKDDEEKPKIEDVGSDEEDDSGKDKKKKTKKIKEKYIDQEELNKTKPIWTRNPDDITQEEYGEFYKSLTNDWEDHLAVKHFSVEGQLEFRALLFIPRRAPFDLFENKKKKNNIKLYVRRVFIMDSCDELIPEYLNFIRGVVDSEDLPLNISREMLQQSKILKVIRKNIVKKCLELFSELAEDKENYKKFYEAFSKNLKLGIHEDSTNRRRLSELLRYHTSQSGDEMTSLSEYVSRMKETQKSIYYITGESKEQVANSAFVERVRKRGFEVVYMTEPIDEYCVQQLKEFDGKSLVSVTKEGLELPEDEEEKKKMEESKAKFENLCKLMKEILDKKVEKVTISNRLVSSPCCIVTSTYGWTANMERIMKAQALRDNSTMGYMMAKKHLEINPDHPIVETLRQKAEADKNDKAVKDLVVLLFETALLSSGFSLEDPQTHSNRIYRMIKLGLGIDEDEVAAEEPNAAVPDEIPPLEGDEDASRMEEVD

Consider `NCCCC[C@@H]1NC(=O)[C@H](Cc2ccccc2)NC(=O)[C@H](Cc2ccc(O)cc2)NC(=O)[C@@H](CO)NC(=O)[C@H](CC(N)=O)NC1=O` (cyclo(FKN[dS]Y)), for which the inhibition entry in experiment [1] was “inactive”.

For `NCCCC[C@@H]1NC(=O)[C@H](Cc2ccccc2)NC(=O)[C@H](Cc2ccc(O)cc2)NC(=O)[C@H](CO)NC(=O)[C@H](Cc2ccccc2)NC1=O` (cyclo(FKFSY)), the inhibition entry in experiment [1] was “Active”.

As for `NCCCC[C@@H]1NC(=O)[C@@H](Cc2ccccc2)NC(=O)[C@H](Cc2ccc(O)cc2)NC(=O)[C@H](CO)NC(=O)[C@H](CC(N)=O)NC1=O` (cyclo(KNSY[dF])), the inhibition result in experiment [1] was “inactive”.

For the compound `C[C@H]1NC(=O)[C@H](CCCCN)NC(=O)[C@H](Cc2ccccc2)NC(=O)[C@H](Cc2ccc(O)cc2)NC(=O)[C@H](CO)NC1=O`, in experiment [1], the inhibition result is “inactive”.

Take `CC(C)C[C@@H]1NC(=O)[C@H](CCCCN)NC(=O)[C@H](Cc2ccccc2)NC(=O)[C@H](Cc2ccc(O)cc2)NC(=O)[C@H](CO)NC1=O` (cyclo(FKLSY)): the inhibition result in experiment [1] was “inactive”.

On to `NCCCC[C@@H]1NC(=O)[C@H](Cc2ccccc2)NC(=O)[C@H](Cc2ccc(O)cc2)NC(=O)[C@H](CO)NC(=O)[C@H](CC(N)=O)NC1=O` (cyclo(KNSYF)), for which the Ratio IC50 in experiment [2] was greater than 10.

On to `C[C@@H]1NC(=O)[C@H](CC(N)=O)NC(=O)[C@H](CCCCN)NC(=O)[C@H](Cc2ccccc2)NC(=O)[C@H](Cc2ccc(O)cc2)NC1=O` (cyclo(AYFKN)), for which the inhibition result in experiment [1] is “Active”.

Consider `CC[C@H](C)[C@H](NC(=O)[C@H](CCCNC(=N)N)NC(=O)[C@H](C)NC(=O)[C@H](Cc1ccc(O)cc1)NC(=O)[C@H](C)NC(=O)[C@@H](N)CCCCN)C(=O)NCC(=O)N[C@@H](CC(N)=O)C(=O)N[C@@H](CO)C(=O)N[C@@H](Cc1ccc(O)cc1)C(=O)N[C@@H](Cc1ccccc1)C(=O)N[C@@H](CCCCN)C(=O)O`, for which the IC50 in experiment [3] came out at 50 µM. This counts as double-digit micromolar.

For the compound `NCCCC[C@@H]1NC(=O)[C@H](Cc2ccccc2)NC(=O)[C@H](Cc2ccc(O)cc2)NC(=O)[C@H](CO)NC(=O)[C@@H](CC(N)=O)NC1=O` (cyclo(FK[dN]SY)), the inhibition entry in experiment [1] was “inactive”.

On to `NCCCC[C@@H]1NC(=O)[C@H](Cc2ccccc2)NC(=O)[C@H](Cc2ccc(O)cc2)NC(=O)[C@H](CO)NC(=O)[C@H](CC(=O)O)NC1=O` (cyclo(DSYFK)), for which the inhibition result in experiment [1] was “inactive”.
